Where only a bound is given, the exact number is not on record here.

The record followed here is BindingDB's records for doi:10.1002/cbic.201200316 (Moffitt Cancer Center, 2012).

This test addresses Cyclin-dependent kinase 2 (Homo sapiens, UniProt P24941). Briefly: Inhibition Assay. The procedure: The inhibitory against activated CDK2-cyclin A2 complex was determined by using the ADP Quest fluorescence assay from (DiscoveRX, Fremont, CA)
As a reminder, the IC50 is the concentration at which inhibition is half-maximal. A low value points to higher potency. In the case of `Cc1ccc(N=Nc2c(O)ccc3nn[nH]c23)cc1`, the IC50 is above 150 µM.

In turn, `O=C1c2ccccc2C(=O)C1c1ccccn1` displayed an IC50 of 46 µM.

Turning to `Nc1ccc2c(c1Cl)C(=O)c1ccc(N)c(Cl)c1C2=O` [2,6-bis(azanyl)-1,5-bis(chloranyl)anthracene-9,10-dione], the IC50 was above 150 µM.

In the case of `O=c1cc(-c2ccc(O)cc2)oc2c(O)c(O)c(O)c(O)c12` [2-(4-hydroxyphenyl)-5,6,7,8-tetrakis(oxidanyl)chromen-4-one], the IC50 is above 150 µM.

The compound `Oc1ccc(/N=C/c2c(O)ccc3ccccc23)cc1` [Hit compound, 3] showed an IC50 above 150 µM.

`O=c1[nH]c(O)ccc1N=Nc1ccc(S(=O)(=O)O)cc1` [Hit compound, 4] yielded an IC50 of 45 µM.

In turn, `COCc1cc(/N=N/c2cccc(S(N)(=O)=O)c2)c2ccccc2c1N` [Hit compound, 5] displayed an IC50 of 53 µM.

As for `Cc1ccc(/N=N/c2ccc(N)cc2C)c(S(N)(=O)=O)c1` [Hit compound, 7], the IC50 was above 150 µM.

In turn, `Nc1cc([N+](=O)[O-])ccc1Nc1ccc(O)cc1` [Hit compound, 12] returned an IC50 above 150 µM.
